Assay results as given in US6274715A, “Tricyclic erythromycin derivatives” (priority 1997, dated 2001).
≈ marks a conversion by molar mass, not a printed value.

Columns and labels:
Type in all cases: cell-based
[1] = tested on: ENTEROBACTER AEROGENES ATCC 13048; assay: In vitro antibacterial activity, MIC, BHI agar dilution; conditions: E. aerogenes ATCC 13048, unit assumed
[2] = tested on: STREPTOCOCCUS BOVIS A-5169; assay: as above; conditions: S. bovis A-5169, unit assumed
[3] = tested on: STAPHYLOCOCCUS AUREUS 1775; assay: as above; conditions: S. aureus 1775, unit assumed
[4] = tested on: PSEUDOMONAS AERUGINOSA 5007; assay: as above; conditions: P. aeruginosa 5007, unit assumed
[5] = tested on: PSEUDOMONAS AERUGINOSA DPHD-2862; assay: as above; conditions: P. aeruginosa DPHD-2862, unit assumed
PSEUDOMONAS CEPACIA 296I = assay: as above; conditions: P. cepacia 296I, unit assumed
ESCHERICHIA COLI H560 = assay: as above; conditions: E. coli H560, unit assumed
[6] = tested on: STREPTOCOCCUS PYOGENES 930; assay: as above; conditions: S. pyogenes 930, unit assumed
[7] = tested on: STAPHYLOCOCCUS AUREUS NCTC10649M; assay: as above; conditions: S. aureus NCTC10649M, unit assumed
ESCHERICHIA COLI KNK 437 = conditions: E. coli KNK 437; BHI agar; unit assumed
[8] = tested on: KLEBSIELLA PNEUMONIAE ATCC 8045; assay: In vitro antibacterial activity, MIC, BHI agar dilution; conditions: K. pneumoniae ATCC 8045, unit assumed
[9] = tested on: STAPHYLOCOCCUS AUREUS CMX 642A; assay: as above; conditions: S. aureus CMX 642A, unit assumed
[10] = tested on: PSEUDOMONAS AERUGINOSA K799/WT; assay: as above; conditions: P. aeruginosa K799/WT, unit assumed
[11] = tested on: PROVIDENCIA STUARTII CMX 640; conditions: P. stuartii CMX 640; BHI agar; unit assumed
[12] = tested on: STAPHYLOCOCCUS AUREUS ATCC 6538P; assay: In vitro antibacterial activity, MIC, BHI agar dilution; conditions: S. aureus ATCC 6538P, 35-37° C., 20 to 24 hours, unit assumed
ESCHERICHIA COLI SS = assay: as above; conditions: E. coli SS, unit assumed
ESCHERICHIA COLI JUHL = conditions: E. coli JUHL; BHI agar; unit assumed
[13] = tested on: PSEUDOMONAS AERUGINOSA K799/61; assay: In vitro antibacterial activity, MIC, BHI agar dilution; conditions: P. aeruginosa K799/61, unit assumed
[14] = tested on: STAPHYLOCOCCUS AUREUS CMX 553; assay: as above; conditions: S. aureus CMX 553, unit assumed
[15] = tested on: STAPHYLOCOCCUS AUREUS A-5278; assay: as above; conditions: S. aureus A-5278, unit assumed
[16] = tested on: MYCOBACTERIUM SMEGMATIS ATCC 114; assay: as above; conditions: M. smegmatis ATCC 114, unit assumed
[17] = tested on: STAPHYLOCOCCUS AUREUS A5177; assay: as above; conditions: S. aureus A5177, unit assumed
ESCHERICHIA COLI DC-2 = assay: as above; conditions: E. coli DC-2, unit assumed
CANDIDA ALBICANS CCH 442 = assay: as above; conditions: C. albicans CCH 442, unit assumed
[18] = tested on: STAPHYLOCOCCUS EPIDERMIDIS 3519; conditions: S. epidermidis 3519; BHI agar; unit assumed
M[…] ATCC 9341 = assay: In vitro antibacterial activity, MIC, BHI agar dilution; conditions: M. luteus ATCC 9341, unit assumed
Method in brief: (§1)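 Twelve successive aqueous dilutions of compound in Brain Heart Infusion agar were inoculated with 1:100 culture dilutions (1:10 for slow growers such as Micrococcus, Streptococcus) by Steers replicator and incubated at 35-37° C for 20 to 24 hours. MIC was the lowest concentration giving no growth, slight haze or sparse colonies versus drug-free control.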

STR[…] 508 = assay: as above; conditions: S. agalactiae CMX 508, unit assumed
Method in brief: as §1

EN[…] ATCC 8043 = assay: as above; conditions: E. faecium ATCC 8043, unit assumed
Method in brief: as §1

M[…] ATCC 4698 = assay: as above; conditions: M. luteus ATCC 4698, unit assumed
Method in brief: as §1

[19] = tested on: PSEUDOMONAS AERUGINOSA DPHD-5263; assay: as above; conditions: P. aeruginosa DPHD-5263, unit assumed
[20] = tested on: STREPTOCOCCUS PYOGENES EES61; assay: as above; conditions: S. pyogenes EES61, unit assumed
[21] = tested on: STREPTOCOCCUS PYOGENES PIU 2548; assay: as above; conditions: S. pyogenes PIU 2548, unit assumed
[22] = tested on: PSEUDOMONAS AERUGINOSA BMH10; assay: as above; conditions: P. aeruginosa BMH10, unit assumed

SMILES | MIC [1] [mg/L] | MIC [2] [mg/L] | MIC [3] [mg/L] | MIC [4] [mg/L] | MIC [5] [mg/L] | MIC (PSEUDOMONAS CEPACIA 296I) [mg/L] | MIC (ESCHERICHIA COLI H560) [mg/L] | MIC [6] [mg/L] | MIC [7] [mg/L] | MIC (ESCHERICHIA COLI KNK 437) [mg/L] | MIC [8] [mg/L] | MIC [9] [mg/L] | MIC [10] [mg/L] | MIC [11] [mg/L] | MIC [12] [mg/L] | MIC (ESCHERICHIA COLI SS) [mg/L] | MIC (ESCHERICHIA COLI JUHL) [mg/L] | MIC [13] [mg/L] | MIC [14] [mg/L] | MIC [15] [mg/L] | other results
CC[C@H]1OC(=O)[C@H](C)C(=O)[C@H](C)[C@@H](O[C@@H]2O[C@H](C)C[C@H](N(C)C)[C@H]2O)[C@](C)(OC)C[C@@H](C)C2=NCC(COC(=O)c3ccc4ccccc4n3)N3C(=O)O[C@@]1(C)[C@H]3[C@H]2C (stereo partly drawn) [Example 142] | > 100 | 0.01 (≈ 0.0122 µM) | > 100 | > 100 | > 100 | > 100 | 25 (≈ 30.4 µM) | > 100 | 0.2 (≈ 0.243 µM) | 100 (≈ 122 µM) | > 100 | 0.2 (≈ 0.243 µM) | > 100 | > 100 | 0.2 (≈ 0.243 µM) | 1.56 (≈ 1.9 µM) | 50 (≈ 60.8 µM) | 1.56 (≈ 1.9 µM) | 0.2 (≈ 0.243 µM) | > 100 | MIC [16]: 1.56 mg/L (≈ 1.9 µM); MIC [17]: 0.2 mg/L (≈ 0.243 µM); MIC (ESCHERICHIA COLI DC-2): 25 mg/L (≈ 30.4 µM); MIC (CANDIDA ALBICANS CCH 442): > 100 mg/L; MIC [18]: 0.2 mg/L (≈ 0.243 µM); MIC (M[…] ATCC 9341): 0.02 mg/L (≈ 0.0243 µM); MIC (STR[…] 508): 0.01 mg/L (≈ 0.0122 µM); MIC (EN[…] ATCC 8043): 0.1 mg/L (≈ 0.122 µM); MIC (M[…] ATCC 4698): 0.1 mg/L (≈ 0.122 µM); MIC [19]: > 100 mg/L; MIC [20]: 0.01 mg/L (≈ 0.0122 µM); MIC [21]: 0.39 mg/L (≈ 0.474 µM); MIC [22]: > 100 mg/L
CC[C@H]1OC(=O)[C@H](C)C(=O)[C@H](C)[C@@H](O[C@@H]2O[C@H](C)C[C@H](N(C)C)[C@H]2O)[C@](C)(OC)C[C@@H](C)C2=NCC(COC(=O)c3cc4ccccc4n3C)N3C(=O)O[C@@]1(C)[C@H]3[C@H]2C (stereo partly drawn) [Example 143] | > 100 | 0.01 (≈ 0.0121 µM) | 50 (≈ 60.6 µM) | > 100 | > 100 | 50 (≈ 60.6 µM) | 25 (≈ 30.3 µM) | 50 (≈ 60.6 µM) | 0.2 (≈ 0.242 µM) | 50 (≈ 60.6 µM) | > 100 | 0.2 (≈ 0.242 µM) | > 100 | > 100 | 0.1 (≈ 0.121 µM) | 0.78 (≈ 0.945 µM) | 50 (≈ 60.6 µM) | 1.56 (≈ 1.89 µM) | 0.2 (≈ 0.242 µM) | 50 (≈ 60.6 µM) | MIC [16]: 0.2 mg/L (≈ 0.242 µM); MIC [17]: 0.2 mg/L (≈ 0.242 µM); MIC (ESCHERICHIA COLI DC-2): 50 mg/L (≈ 60.6 µM); MIC (CANDIDA ALBICANS CCH 442): 100 mg/L (≈ 121 µM); MIC [18]: 0.2 mg/L (≈ 0.242 µM); MIC (M[…] ATCC 9341): 0.01 mg/L (≈ 0.0121 µM); MIC (STR[…] 508): 0.02 mg/L (≈ 0.0242 µM); MIC (EN[…] ATCC 8043): 0.02 mg/L (≈ 0.0242 µM); MIC (M[…] ATCC 4698): 0.2 mg/L (≈ 0.242 µM); MIC [19]: > 100 mg/L; MIC [20]: 0.02 mg/L (≈ 0.0242 µM); MIC [21]: 0.39 mg/L (≈ 0.473 µM); MIC [22]: > 100 mg/L
CC[C@H]1OC(=O)[C@H](C)C(=O)[C@H](C)[C@@H](O[C@@H]2O[C@H](C)C[C@H](N(C)C)[C@H]2O)[C@](C)(OC)C[C@@H](C)C2=NCC(COC(=O)c3cccc4[nH]ccc34)N3C(=O)O[C@@]1(C)[C@H]3[C@H]2C (stereo partly drawn) [Example 144] | 100 (≈ 123 µM) | ≤ 0.005 | > 100 | > 100 | > 100 | 50 (≈ 61.7 µM) | 50 (≈ 61.7 µM) | 100 (≈ 123 µM) | 0.1 (≈ 0.123 µM) | 50 (≈ 61.7 µM) | 100 (≈ 123 µM) | 0.1 (≈ 0.123 µM) | > 100 | > 100 | 0.1 (≈ 0.123 µM) | 0.78 (≈ 0.962 µM) | 50 (≈ 61.7 µM) | 0.78 (≈ 0.962 µM) | 0.1 (≈ 0.123 µM) | > 100 | MIC [16]: 1.56 mg/L (≈ 1.92 µM); MIC [17]: 0.1 mg/L (≈ 0.123 µM); MIC (ESCHERICHIA COLI DC-2): 50 mg/L (≈ 61.7 µM); MIC (CANDIDA ALBICANS CCH 442): > 100 mg/L; MIC [18]: 0.1 mg/L (≈ 0.123 µM); MIC (M[…] ATCC 9341): 0.01 mg/L (≈ 0.0123 µM); MIC (STR[…] 508): ≤ 0.005 mg/L; MIC (EN[…] ATCC 8043): 0.1 mg/L (≈ 0.123 µM); MIC (M[…] ATCC 4698): 0.1 mg/L (≈ 0.123 µM); MIC [19]: > 100 mg/L; MIC [20]: ≤ 0.005 mg/L; MIC [21]: 0.39 mg/L (≈ 0.481 µM); MIC [22]: > 100 mg/L
